According to patent US8481484B2, “Cyclic heptapeptide and use of the same” (National University Corporation Nagoya University, priority 2007, dated 2013):

The compounds below were run on Murine preadipocytes (3T3-L1) (assay: Fat accumulation in 3T3-L1 preadipocytes during induced differentiation (Triglyceride E-test)). Settings: 3T3-L1, differentiation-inducing medium with test compound, seven days; stated in words, numbers only in FIG. 7.
Type: cell-based
Experimental: Murine preadipocytes (3T3-L1) have such a property as to accumulate fat following differentiation. In the present test, while differentiation of 313-L1 preadipocytes was induced by insulin and the like, test compounds were simultaneously added. Then, an amount of fat in the cells was measured to evaluate that the test compounds exert inhibition of differentiation of the preadipocytes or an inhibitory effect on fat accumulation following differentiation. In this test, in a case where cells die due to the test compounds, there is concern that the test might unintentionally result in a low fat accumulation rate, which is seemingly a favorable result. […] Also, fat accumulation was observed under a microscope from time to time during the test.
Preadipocytes (3T3-L1) were cultured to confluence in the presence of 5% CO2 at 37° C. for two days in 150 μL of culture media (DMEM containing 10% fetal bovine serum (glucose concentration of […])) in two 96-well microplates. Then, with respect to both plates, the culture media were aspirated and replaced with 150 μL of differentiation-inducing media containing a certain concentration of test compounds (DMEM containing 10% fetal bovine serum (glucose concentration of […]) in which 1 μM dexamethasone, 10 μg/mL insulin, and 0.5 mM 3-isobutyl-1-methylxanthine were dissolved). Normally, methanol solution containing a 200-fold concentration of test compounds (1a, 1b, 1c, 1d, and 1e) was prepared, and 7.5 μL of the solution was added with respect to 1.5 mL of the differentiation-inducing media. At this time, a well that was not replaced with the differentiation-inducing medium and a well to which only methanol was added instead of a sample solution were prepared as a control. The plates were cultured in the presence of 5% CO2 at 37° C. for seven days. Thereafter, one plate was served for measurement of an amount of fat, and the other plate was served for measurement of a survival rate.
To each well of the plate for measurement of an amount of fat, 10 μL of 2% Triton X-100 was added, and the plate was left to stand for 30 minutes. Subsequently, the plate was sealed with a sealing tape (a product of Asahi Techno Glass Corporation) and sonicated for one minute in an ultrasonic cleaner. Subsequently, 20 μL of solution was collected from each well and added to a 96-well microplate in which 150 μL of Triglyceride E-test Wako (a product of Wako Pure Chemical Industries, Ltd.), a coloring reagent, had been added to each well, and then the plate was incubated at 37° C. for 30 minutes, after which absorbance (at 630 nm, control at 690 nm) was measured by a plate reader. A ratio of absorbance in a compound-added group to absorbance in a compound-free group was obtained as a percentage, which was provided as a fat accumulation rate. Fat accumulation rates with respect to a concentration in each sample were represented as a semilogarithmic graph. From this graph a compound concentration at which a fat accumulation rate was 50% was read off, which was provided as a 50% effective concentration (EC50). It can be interpreted that the smaller the EC50 value is, the stronger the inhibitory effect on differentiation of adipocytes or on fat accumulation in adipocytes is.

SMILES | EC50 (compound concentration at which the fat accumulation rate is 50%); inhibitory effect on differentiation of adipocytes or on fat accumulation
CC[C@H](C)[C@H]1NC(=O)[C@@H](COCc2ccccc2)NC(=O)[C@@H](C)N(C)C(=O)[C@H](C)N(C)C(=O)[C@H](CC(C)C)NC(=O)[C@H](CC(C)C)N(C)C(=O)[C@H](C)N(C)C1=O [1c] | excellently exerts an inhibitory effect on differentiation of adipocytes or on fat accumulation in adipocytes
CC[C@H](C)[C@H]1NC(=O)[C@@H](CO)NC(=O)[C@@H](C)N(C)C(=O)[C@H](C)N(C)C(=O)[C@H](CC(C)C)NC(=O)[C@H](CC(C)C)N(C)C(=O)[C@H](C)N(C)C1=O [1e] | excellently exerts an inhibitory effect on differentiation of adipocytes or on fat accumulation in adipocytes
CC[C@H](C)[C@H]1NC(=O)[C@@H](C)NC(=O)[C@@H](C)N(C)C(=O)[C@H](C)N(C)C(=O)[C@H](CC(C)C)NC(=O)[C@H](CC(C)C)N(C)C(=O)[C@H](C)N(C)C1=O [1a] | excellently exerts an inhibitory effect on differentiation of adipocytes or on fat accumulation in adipocytes
CC[C@H](C)[C@H]1NC(=O)[C@@H]([C@H](C)O)NC(=O)[C@@H](C)N(C)C(=O)[C@H](C)N(C)C(=O)[C@H](CC(C)C)NC(=O)[C@H](CC(C)C)N(C)C(=O)[C@H](C)N(C)C1=O [1d] | excellently exerts an inhibitory effect on differentiation of adipocytes or on fat accumulation in adipocytes
CC[C@H](C)[C@H]1NC(=O)[C@@H](CC(C)C)NC(=O)[C@@H](C)N(C)C(=O)[C@H](C)N(C)C(=O)[C@H](CC(C)C)NC(=O)[C@H](CC(C)C)N(C)C(=O)[C@H](C)N(C)C1=O [1b] | excellently exerts an inhibitory effect on differentiation of adipocytes or on fat accumulation in adipocytes
